Measured values taken from patent US8099262B2, “Estimation of clinical cut-offs” (priority 2004, dated 2012).

What was measured:
Type in all cases: in vivo
HIV [1] = tested on: HIV; set-up: Linear Regression Higher CO / Linear Regression Lower CO: unit not given here; conditions: for Linear Regression Higher CO / Linear Regression Lower CO: Definition 2, Overall (whole population); for VIROLOGIC RESPONSE Baseline FC for 80% REDUCTION of response (upper cutoff) / VIROLOGIC RESPONSE 20% REDUCTION (fold change, preliminary VirtualPhenotype Clinical Cutoff) / VIROLOGIC RESPONSE 80% REDUCTION (fold change, preliminary VirtualPhenotype Clinical Cutoff): preliminary linear regression analysis; for VIROLOGIC RESPONSE 20% REDUCTION (fold change, preliminary VirtualPhenotype Clinical Cutoff) / VIROLOGIC RESPONSE 80% REDUCTION (fold change, preliminary VirtualPhenotype Clinical Cutoff): virologic response at 8 weeks
Description: Databases of studies for patients with tenofovir containing regimens and consisting of patient baseline demographic characteristics, clinical outcome results with viral load and resistance data (Fold change), were retrieved and remapped according to a common structure allowing a meta-analysis. The structure consisted of baseline sequence, viral load data set, viral load measurements and sampling dates (for example viral load within 3 months of starting new regimen and viral load assessment 8 and/or 24 weeks after beginning new regimen), CD4+ data set which contains CD4+ counts and sampling dates, resistance data set containing the fold changes to different antivirals and sampling dates; patient data set with patient information such as age, gender, race, treatment history; treatment data set with drug regimens, start and stop dates, doses, formulations, frequency of intake, regimen changes after resistance tests. The structure of such a clinical data base can be seen in FIG. 1a.
The viral load response data includes censored (<400 copies/ml) values. Parameters of the underlying uncensored distribution were estimated by maximum likelihood estimation in SAS (proc lifereg). The viral load response data are corrected for baseline viral load and cPSS.
(§1) The models applied were linear regression, logistic regression, and a classification tree. These models also took into account effects of the concomitant HIV drugs (PSS), baseline viral load (Baseline Log(V1)i) and, optionally, treatment history in order to avoid bias introduced by imbalances of important characteristics. From the models, a prediction of clinical outcome could be made at different levels of the baseline fold change resistance.
In the linear regression model, the proposed equation was the following: LogVL dropi=β0+β1*Baseline Log(V1)i+β2*PSSi+β3*(1/FC)i+ξi where i represented the patient, β0 the intercept, β1, β2 and β3 coefficients indicated the increase in log viral load drop per unit increase of respectively the baseline log VL, the number of sensitive drugs in the background regimen and the inverse of the baseline fold change. ξi was a random error term indicating the deviation of the patient from the value predicted by the model. Interactions between all the factors were evaluated and other baseline characteristics, i.e treatment history, were added if relevant.
When viral load results under the detection limits are obtained, biases could be introduced if the detection limit values are considered when calculating viral load drops and using those in the linear regression model. To avoid this, censoring needed to be taken into account and therefore the PROC LIFEREG facility in the SAS package was employed.
Clinical responses were predicted in the models developed in previous step 2. […] In order to determine the fold changes at which clinically relevant diminished clinical responses can be observed, three definitions of clinical cut-offs were considered:
(§2) The maximum effect was defined as the treatment effect at fold change 1, and the minimum effect was defined as the treatment effect at a very high fold change (i.e. when the curve reached a plateau). The effect range was then the difference between the maximum effect and the minimum effect.

HIV [2] = tested on: HIV; set-up: key to Modelled Lower Cutoff & Confidence Interval / Modelled Upper Cutoff & Confidence Interval: fold change (FC) matching VL drop at 20% and 80% loss of activity; conditions: for Modelled Lower Cutoff & Confidence Interval / Modelled Upper Cutoff & Confidence Interval: preferred embodiment of linear regression
Description: In a preferred embodiment of the linear regression model, more factors are included in order to obtain a more refined prediction of viral load response. These factors include for example a sensitivity score per drug class in addition to the overall sensitivity score of the background treatment (cPSS), previous exposure to the drug (naïve (Yes/No), naïve to PIs, naïve to NRTI's, etc. . . . ). Furthermore, in the preferred embodiment, the fold change is transformed before inserting the figures into the model. The transformation to the fold change comprises a power-transformation ranging from FC^−3 to FC^1. In addition, a quadratic term in cPSS is preferably added.
The NRTI[naïve] value represents whether the patient is naïve to nucleoside RT inhibitors. If yes, value=1, if no, value=0. The PSS[NRTI} represents the phenotypic sensitivity score for NRTIs, i.e the number of active NRTIs in the background regimen for the patient.
Stage 3: Determine Fold change equivalent to VL drop at 20% and 80% loss of activity by inserting values for VL drop into the above equation and calculating FC. […]

HIV [3] = conditions: for Test Data BCO Odds Ratio / Validation Data BCO Odds Ratio: biological cutoffs; for Test Data CCO Odds Ratio / Validation Data CCO Odds Ratio: clinical cutoffs
Description: Further factors which may be taken into account when validating the model are the odds ratios determined using clinical cutoffs compared to those determined using biological cutoffs. These ratios represent the odds of being a responder in the group that is labeled resistant by the cutoffs divided by the odds of being a responder in the group that is labeled sensitive by the cutoffs. In this way it is possible to evaluate how well the cutoffs perform on a drug by drug basis. The further away that the odds ratio is from 1, the stronger the correlation between the resistance class and clinical outcome. The odds ratio as specified above yield numbers smaller than 1 as the odds of being a responder should be smaller in the higher resistance class. Put another way, the probability of response will decrease as the resistance increases. Additionally, if the odds ratio for the CCO is smaller than the odds ratio for the BCO, it can be concluded that the CCO is stronger correlated with clinical outcome and therefore gives a better prediction than the BCO.
(§3) A logistic regression model may be used to determine the odds ratio. The model used is the same as the logistic regression model described above except that the fold change in the model is replaced by the resistance class. The coefficient for the resistance class that is obtained from the model is the log (odds ratio). The advantage of using this model is that the odds ratio estimates can be adjusted for the baseline viral load and the cPSS score of the background regimen.
The columns headed CCO Odds Ratio and BCO Odds Ratio represent the odds of being a responder in the group that is labeled resistance by the cutoffs divided by the odds of being a responder in the group that is labeled sensitive by the cutoffs. For example, if there are four non-responders and one responder in the resistant group, and four responders and two non-responders in the sensitive group, the odds of being a responder in the resistant group is 1:4=0.25 and the odds of being a responder in the sensitive group is 4:2=2. […] The further away that the odds ratio is from 1, the stronger the correlation between the resistance class and clinical outcome.
The separation in groups (resistance/sensitive) can be done based on clinical cutoffs or biological cutoffs. This means that odds ratios based on clinical cutoffs (CCO) and odds ratios based on biological cutoffs (BCO) can be compared. If the odds ratio for the CCO is smaller than the odds ratio for the BCO, it can be concluded that the CCO gives a better prediction than the BCO.
as §3, with “In practice, a” for “A”, “is” for “may be”, “similar to” for “the same as the”, “earlier” for “above”, “regimen. […] In this case, a larger odds ratio indicates a stronger correlation with clinical outcome.” for “regimen.”

HIV [4] = assay: Logistic regression model of probability of success/failure as a function of baseline fold change resistance (clinical cut-offs); conditions: Definition 2; for lower cutoff, logistic regression / upper cutoff, logistic regression: log baseline VL/background PSS of 5/0
Description: In such a method, Prob of success is preferably calculated by performing a logistic regression analysis using data from a clinical response dataset, wherein Prob of success is modelled according to the following equation: […]
as §1, with “The clinical outcome results (drop in viral load and response rate) were modelled as a function of baseline fold change (FC) as determined by virtual phenotype (see WO01/79540 and WO02/33402; also http://www.vircolab.com). The models” for “The models”
In the logistic regression, the proposed equation was the following: […]
However, by binning the viral load into successes and failures, part of the information of the continuous variable viral load is lost. Estimates are also corrected for covariates as for linear regression.
as §2
The lower and higher cutoffs are defined as the fold change associated with an expected 20% and 80% decrease respectively of the reference activity of the drug within the regimen.

[5] = Subgroup 1: PSS = 2, baseline Log (VL) = 4
[6] = Subgroup 3: PSS = 2, baseline Log (VL) = 5
[7] = Log(BaselineVL)=4, cPSS=2, PSS[NRTI]=1, NRTI[naïve]=0
[8] = definition 2, Log(BaselineVL)=4, reference fold changes 0.9 and 3, cPSS=2, PSS[NRTI]=1, NRTI[naïve]=0
[9] = Definition 1, log baseline viral load of 5, no active drugs in addition

Row | Compound | clinical cutoff for 80% reduced response (upper clinical cutoff) (HIV [1]; definition 2, after 8 weeks) | Modelled Lower Cutoff & Confidence Interval (HIV [2]) | Modelled Upper Cutoff & Confidence Interval (HIV [2]) | Test Data BCO Odds Ratio (HIV [3]) | Test Data CCO Odds Ratio (HIV [3]) | Validation Data BCO Odds Ratio (HIV [3]) | Validation Data CCO Odds Ratio (HIV [3]) | VIROLOGIC RESPONSE Baseline FC for 80% REDUCTION of response (upper cutoff) (HIV [1]; definition 2) | VIROLOGIC RESPONSE 20% REDUCTION (fold change, preliminary VirtualPhenotype Clinical Cutoff) (HIV [1]) | VIROLOGIC RESPONSE 80% REDUCTION (fold change, preliminary VirtualPhenotype Clinical Cutoff) (HIV [1]) | further results
1 | CC(C)CN(C[C@@H](O)[C@H](Cc1ccccc1)NC(=O)O[C@H]1CCOC1)S(=O)(=O)c1ccc(N)cc1 [APV, amprenavir] | 3.4 |  |  |  |  |  |  |  |  |  | 
2 | Cc1ccnc2c1NC(=O)c1cccnc1N2C1CC1 [NVP, neviripine] |  | 1.5 | 3.2 | 0.290 | 0.282 | 0.054 | 0.054 |  |  |  | 
3 | Lopinavir/r [LPV/r] |  | 10.3 | 61.6 | 0.240 | 0.074 | 0.277 | 0.002 | 56 | 6.9 | 56 | Logistic Regression Higher CO (HIV [4]; [5]): 64; Logistic Regression Lower CO (HIV [4]; [5]): 11; Logistic Regression Higher CO (HIV [4]; [6]): 58; Logistic Regression Lower CO (HIV [4]; [6]): 9; lower cutoff, logistic regression (HIV [4]): 10; upper cutoff, logistic regression (HIV [4]): 60; Linear Regression Higher CO (HIV [1]): 69; Linear Regression Lower CO (HIV [1]): 8
4 | Cc1cn([C@H]2C=C[C@@H](CO)O2)c(=O)[nH]c1=O [D4T, stavudine] |  |  |  |  |  |  |  |  |  |  | Fold change equivalent to VL drop at 20% loss of activity (HIV [2]; [7]): 1.08; Fold change equivalent to VL drop at 80% loss of activity (HIV [2]; [7]): 2.18; VL drop when drug has lost 20% of its activity (HIV [2]; [7]): −2.76; VL drop when drug has lost 80% of its activity (HIV [2]; [7]): −2.21; modelled lower clinical cutoff (CCO) (HIV [2]; [8]): 1.1; modelled upper clinical cutoff (CCO) (HIV [2]; [8]): 2.2; VL drop at the lower reference FC (drug is fully active) (HIV [2]; lower reference fold change=0.9, Log(BaselineVL)=4, cPSS=2, PSS[NRTI]=1, NRTI[naïve]=0): −2.94; VL drop at the upper reference FC (minimal activity of the drug) (HIV [2]; upper reference fold change=3, Log(BaselineVL)=4, cPSS=2, PSS[NRTI]=1, NRTI[naïve]=0): −2.03; fold change at predicted viral load drop of −0.2 logs (HIV [1]; [9]): 4.0; fold change at predicted viral load drop of −0.6 logs (HIV [1]; [9]): 2.6; predicted viral load drop for any fold change (HIV [1]; Definition 1, log baseline viral load of 5, two active drugs in addition): more than 0.6 log copies/mL
5 | CC(C)(C)NC(=O)[C@@H]1CN(Cc2cccnc2)CCN1C[C@@H](O)C[C@@H](Cc1ccccc1)C(=O)N[C@H]1c2ccccc2C[C@H]1O [IDV, indinavir] | 3.4 |  |  |  |  |  |  |  |  |  | 
6 | Indinavir/r [IDV/r] |  | 4.1 | 21.2 | 0.122 | 0.027 | 0.038 | 0.012 | 25 | 3.5 | 25 | 
7 | amprenavir/r [APV/r] | 6.8 | 0.9 | 6.5 | 0.053 | 0.005 |  |  | 6.8 | 1.5 | 6.8 | clinical cutoff for 20% reduced response (lower clinical cutoff) (HIV [1]; definition 2, after 8 weeks): 1.5
8 | Saquinavir/r [SQV/r] |  | 1.1 | 12.0 | 0.249 | 0.165 | 0.080 | 0.054 | 12 | 1.6 | 12 | Logistic Regression Higher CO (HIV [4]; [5]): 13.2; Logistic Regression Lower CO (HIV [4]; [5]): 1.7; lower cutoff, logistic regression (HIV [4]): 1.7; upper cutoff, logistic regression (HIV [4]): 12.9; Linear Regression Higher CO (HIV [1]): 12.3; Linear Regression Lower CO (HIV [1]): 1.6
